# Values of other authors, collected in patent publication US9072714B2, “Fatty acids for use as a medicament” (Lipid Pharmaceuticals ehf., priority 2008, dated 2015).
# Details: laxative, by class and site of action
row,Structure (SMILES),Onset of action
1,CCCCC(CC)COC(=O)CC(C(=O)OCC(CC)CCCC)S(=O)(=O)O (centres unmarked) [Docusate],12 to 72 h
2,O=C1OC(c2ccc(O)cc2)(c2ccc(O)cc2)c2ccccc21 [Phenolphthalein],6 to 8 h
